Test system: Caco-2 monolayer
Format: in vitro ADME, human
Experimental: To test that the monolayer well resembled the epithelial lining of the GI tract and formed tight junctions, Lucifer Yellow (LY) was used as a standard. It has been reported that the integrity of a Caco-2 monolayer is good once the Papp of LY across the monolayer is <5×10^−7 cm/s. The measured Papp of LY across all Caco-2 monolayers (see Methods for more details) used in this study is depicted in FIG. 8B, with all values of Papp<3×10^−7 cm/s.
Caco-2 Cell Culture: Caco-2 cells (ATCC) were cultured in RPMI 1640 supplemented with 20% fetal bovine serum and 10k/10k penicillin/streptomycin (Lonza). 75 μL of Caco-2 cells were plated on the apical side of a 96-well Transwell dish at a seeding density of 2×10^5 cells/mL. 75 μL of media was used on the apical side and 235 μL on the basolateral side. The media was changed every other day for a week, followed by changes every day until the Papp of a Lucifer Yellow assay was <5×10^−7 cm/s. Cells were incubated at 37° C. with 5% CO2 and 90% humidity.
Lucifer Yellow Monolayer Integrity Assay: Lucifer Yellow (LY) was dissolved at a concentration of 0.1 mg/mL in Hank's balanced salt solution (HBSS). 75 μL of LY solution was added to the apical side and 235 μL HBSS was added to the basolateral side. […] The concentration of LY on the basolateral side was determined using fluorescence 488/520 ex/em with a Spectramax M2. […]

Papp of Lucifer Yellow across Caco-2 monolayers: < 3e-07 cm/s
Substance: Lucifer Yellow [LY]

From patent US20240181091A1, “ORAL DELIVERY OF SILICA/ALUMINOSILICATE NANOPARTICLES” (Cornell University, priority 2021, published 2024)
